A word on the Ki: it is the equilibrium dissociation constant of an inhibitor or competing ligand from its target.

This is an account of results in ChEMBL document CHEMBL1146965, “Pyridone derivatives as potent and selective VLA-4 integrin antagonists” (Bioorg Med Chem Lett, 2006).

Each structure is given as a SMILES string.

Holding throughout (format): cell-based
One test addresses Integrin alpha-4/beta-1 (Homo sapiens, UniProt P05556+P13612). The test is described as follows: Binding affinity to integrin alpha-4-beta-1 expressed in jurkat J6 cells.
A further test addresses Integrin alpha-5/beta-1 (Homo sapiens, UniProt P05556+P08648). The test is described as follows: Binding affinity to integrin alpha-5-beta-1 expressed in jurkat J6 cells.
Another test addresses Integrin alpha-V/beta-3 (Homo sapiens, UniProt P05106+P06756). The test is described as follows: Binding affinity to integrin alphavbeta3 expressed in jurkat J6 cells.
In another test the target is Integrin alpha-V/beta-6 (Homo sapiens, UniProt P06756+P18564). The test is described as follows: Binding affinity to integrin alpha-v-beta-6 expressed in jurkat J6 cells.
Integrin alpha-V/beta-6, sequence (P06756 31-889 limits assumed): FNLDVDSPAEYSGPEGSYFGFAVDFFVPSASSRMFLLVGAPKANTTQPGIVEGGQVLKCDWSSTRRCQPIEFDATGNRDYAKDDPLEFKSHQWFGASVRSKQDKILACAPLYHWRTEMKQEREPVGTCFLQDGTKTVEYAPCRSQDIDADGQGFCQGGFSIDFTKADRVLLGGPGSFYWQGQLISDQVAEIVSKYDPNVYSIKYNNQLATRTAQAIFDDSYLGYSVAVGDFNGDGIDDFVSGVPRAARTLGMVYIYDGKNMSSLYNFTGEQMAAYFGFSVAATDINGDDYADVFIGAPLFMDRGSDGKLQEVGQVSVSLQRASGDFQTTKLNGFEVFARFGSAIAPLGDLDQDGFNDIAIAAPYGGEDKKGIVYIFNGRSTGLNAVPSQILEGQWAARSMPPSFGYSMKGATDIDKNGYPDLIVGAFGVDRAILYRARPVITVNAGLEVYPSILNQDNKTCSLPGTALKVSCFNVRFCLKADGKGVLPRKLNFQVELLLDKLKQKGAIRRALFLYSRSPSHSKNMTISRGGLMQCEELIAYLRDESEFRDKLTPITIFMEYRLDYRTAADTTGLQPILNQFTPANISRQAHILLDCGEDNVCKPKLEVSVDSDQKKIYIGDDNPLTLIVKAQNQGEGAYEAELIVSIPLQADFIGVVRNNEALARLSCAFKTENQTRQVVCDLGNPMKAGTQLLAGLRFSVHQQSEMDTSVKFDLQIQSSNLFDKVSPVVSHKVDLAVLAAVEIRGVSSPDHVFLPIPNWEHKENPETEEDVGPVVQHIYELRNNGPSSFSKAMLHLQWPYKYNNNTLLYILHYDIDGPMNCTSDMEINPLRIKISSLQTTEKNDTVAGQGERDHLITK
Integrin alpha-V/beta-6, sequence (P06756 891-1048 limits assumed): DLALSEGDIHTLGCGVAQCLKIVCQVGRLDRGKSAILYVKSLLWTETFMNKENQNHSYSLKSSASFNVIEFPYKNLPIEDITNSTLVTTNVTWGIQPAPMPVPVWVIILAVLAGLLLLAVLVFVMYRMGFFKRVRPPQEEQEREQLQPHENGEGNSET
Integrin alpha-V/beta-6, sequence (P18564 22-788 limits assumed): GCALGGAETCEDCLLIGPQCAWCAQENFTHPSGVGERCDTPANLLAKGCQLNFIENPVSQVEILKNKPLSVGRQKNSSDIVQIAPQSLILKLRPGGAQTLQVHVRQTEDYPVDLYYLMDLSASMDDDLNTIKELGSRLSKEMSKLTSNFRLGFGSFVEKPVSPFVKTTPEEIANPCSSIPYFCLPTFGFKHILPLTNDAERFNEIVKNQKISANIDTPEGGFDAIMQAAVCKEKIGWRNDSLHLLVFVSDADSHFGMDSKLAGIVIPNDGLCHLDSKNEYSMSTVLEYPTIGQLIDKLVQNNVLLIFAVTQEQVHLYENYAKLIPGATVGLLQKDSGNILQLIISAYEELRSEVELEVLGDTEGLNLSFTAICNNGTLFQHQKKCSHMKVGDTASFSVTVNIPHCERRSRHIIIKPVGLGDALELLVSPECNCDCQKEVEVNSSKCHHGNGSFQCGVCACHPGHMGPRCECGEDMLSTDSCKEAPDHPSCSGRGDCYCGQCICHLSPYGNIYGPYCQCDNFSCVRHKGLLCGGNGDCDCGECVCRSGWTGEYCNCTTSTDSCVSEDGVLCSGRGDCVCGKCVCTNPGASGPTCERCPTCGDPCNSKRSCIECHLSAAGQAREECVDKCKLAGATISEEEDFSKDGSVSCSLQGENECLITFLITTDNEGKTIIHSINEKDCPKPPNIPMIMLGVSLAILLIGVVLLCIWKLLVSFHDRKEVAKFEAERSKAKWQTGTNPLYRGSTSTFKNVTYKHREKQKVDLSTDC
For another test, the target named is T1, Integrin alpha-4/beta-7 (Homo sapiens, UniProt P13612+P26010).
T1 sequence (P13612 whole entry): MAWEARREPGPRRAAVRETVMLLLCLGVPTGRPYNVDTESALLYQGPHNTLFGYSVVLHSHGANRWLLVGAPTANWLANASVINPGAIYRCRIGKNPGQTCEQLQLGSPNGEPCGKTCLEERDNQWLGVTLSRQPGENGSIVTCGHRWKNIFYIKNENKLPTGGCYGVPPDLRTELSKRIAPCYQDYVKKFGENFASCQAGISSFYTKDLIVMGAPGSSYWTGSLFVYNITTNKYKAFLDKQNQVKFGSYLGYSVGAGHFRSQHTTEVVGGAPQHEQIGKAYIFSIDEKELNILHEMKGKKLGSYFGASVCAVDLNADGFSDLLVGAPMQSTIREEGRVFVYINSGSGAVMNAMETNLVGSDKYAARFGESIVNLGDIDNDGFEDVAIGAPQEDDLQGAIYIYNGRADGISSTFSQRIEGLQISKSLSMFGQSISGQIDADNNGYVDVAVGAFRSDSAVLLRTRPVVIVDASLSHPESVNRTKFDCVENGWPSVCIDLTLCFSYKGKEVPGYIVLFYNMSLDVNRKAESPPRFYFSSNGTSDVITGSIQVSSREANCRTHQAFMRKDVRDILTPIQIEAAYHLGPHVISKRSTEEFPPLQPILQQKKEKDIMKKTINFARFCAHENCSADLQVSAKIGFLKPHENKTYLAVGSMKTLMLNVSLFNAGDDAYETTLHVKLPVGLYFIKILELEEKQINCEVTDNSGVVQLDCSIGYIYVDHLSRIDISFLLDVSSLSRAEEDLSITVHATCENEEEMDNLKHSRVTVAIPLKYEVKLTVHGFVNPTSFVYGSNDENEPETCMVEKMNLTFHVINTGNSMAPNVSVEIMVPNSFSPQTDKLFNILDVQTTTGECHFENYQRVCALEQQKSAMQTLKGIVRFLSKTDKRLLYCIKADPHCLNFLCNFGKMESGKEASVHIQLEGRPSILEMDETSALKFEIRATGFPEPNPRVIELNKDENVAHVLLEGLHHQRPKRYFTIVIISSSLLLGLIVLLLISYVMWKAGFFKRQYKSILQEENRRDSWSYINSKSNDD
T1 sequence (P26010 whole entry): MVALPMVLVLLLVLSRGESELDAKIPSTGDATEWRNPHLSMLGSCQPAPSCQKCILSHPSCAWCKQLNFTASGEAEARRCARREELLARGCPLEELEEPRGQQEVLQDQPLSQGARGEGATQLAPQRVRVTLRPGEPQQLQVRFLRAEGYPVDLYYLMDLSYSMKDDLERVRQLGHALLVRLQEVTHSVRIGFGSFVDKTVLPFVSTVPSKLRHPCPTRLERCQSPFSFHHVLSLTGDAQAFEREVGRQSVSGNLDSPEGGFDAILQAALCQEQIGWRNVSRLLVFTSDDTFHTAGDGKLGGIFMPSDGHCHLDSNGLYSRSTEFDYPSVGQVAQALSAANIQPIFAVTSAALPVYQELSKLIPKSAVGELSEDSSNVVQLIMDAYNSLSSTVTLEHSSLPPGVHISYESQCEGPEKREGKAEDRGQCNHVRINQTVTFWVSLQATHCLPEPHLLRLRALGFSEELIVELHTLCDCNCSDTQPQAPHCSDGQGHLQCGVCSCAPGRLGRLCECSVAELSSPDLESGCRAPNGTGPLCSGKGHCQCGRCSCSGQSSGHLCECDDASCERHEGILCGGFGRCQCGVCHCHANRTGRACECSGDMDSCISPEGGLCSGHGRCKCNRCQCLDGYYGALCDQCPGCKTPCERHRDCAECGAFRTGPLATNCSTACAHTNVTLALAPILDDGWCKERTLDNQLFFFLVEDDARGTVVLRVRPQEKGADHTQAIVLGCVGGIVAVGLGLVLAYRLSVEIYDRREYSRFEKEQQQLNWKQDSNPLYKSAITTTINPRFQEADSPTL
The test is described as follows: Binding affinity to integrin alpha-4-beta-7 expressed in jurkat J6 cells.

Test [1] addresses Integrin alpha-IIb/beta-3 (Homo sapiens, UniProt P05106+P08514). The test is described as follows: Binding affinity to integrin […] expressed in jurkat J6 cells.

Integrin alpha-4/beta-1, sequence (P05556 whole entry, one chain of several): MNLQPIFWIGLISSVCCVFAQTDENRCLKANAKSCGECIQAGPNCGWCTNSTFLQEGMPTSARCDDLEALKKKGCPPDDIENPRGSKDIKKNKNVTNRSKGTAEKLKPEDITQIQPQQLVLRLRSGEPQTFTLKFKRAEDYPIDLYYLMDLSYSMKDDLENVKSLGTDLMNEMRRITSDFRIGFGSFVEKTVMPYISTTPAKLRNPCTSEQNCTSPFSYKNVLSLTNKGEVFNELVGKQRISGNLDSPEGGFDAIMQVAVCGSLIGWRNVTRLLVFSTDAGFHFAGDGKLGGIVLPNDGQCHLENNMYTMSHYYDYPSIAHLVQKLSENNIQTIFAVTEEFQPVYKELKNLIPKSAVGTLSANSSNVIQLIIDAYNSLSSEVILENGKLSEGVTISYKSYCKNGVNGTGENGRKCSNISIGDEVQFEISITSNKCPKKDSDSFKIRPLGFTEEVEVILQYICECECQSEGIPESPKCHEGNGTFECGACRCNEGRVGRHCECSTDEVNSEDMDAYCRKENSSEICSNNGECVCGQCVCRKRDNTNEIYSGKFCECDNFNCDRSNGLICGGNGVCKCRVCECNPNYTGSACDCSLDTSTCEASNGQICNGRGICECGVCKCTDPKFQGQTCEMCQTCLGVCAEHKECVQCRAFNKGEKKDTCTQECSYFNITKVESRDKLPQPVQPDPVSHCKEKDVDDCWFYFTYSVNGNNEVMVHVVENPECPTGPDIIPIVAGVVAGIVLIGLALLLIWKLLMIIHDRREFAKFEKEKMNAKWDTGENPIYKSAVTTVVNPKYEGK
Integrin alpha-IIb/beta-3, sequence (P05106 27-788 limits assumed): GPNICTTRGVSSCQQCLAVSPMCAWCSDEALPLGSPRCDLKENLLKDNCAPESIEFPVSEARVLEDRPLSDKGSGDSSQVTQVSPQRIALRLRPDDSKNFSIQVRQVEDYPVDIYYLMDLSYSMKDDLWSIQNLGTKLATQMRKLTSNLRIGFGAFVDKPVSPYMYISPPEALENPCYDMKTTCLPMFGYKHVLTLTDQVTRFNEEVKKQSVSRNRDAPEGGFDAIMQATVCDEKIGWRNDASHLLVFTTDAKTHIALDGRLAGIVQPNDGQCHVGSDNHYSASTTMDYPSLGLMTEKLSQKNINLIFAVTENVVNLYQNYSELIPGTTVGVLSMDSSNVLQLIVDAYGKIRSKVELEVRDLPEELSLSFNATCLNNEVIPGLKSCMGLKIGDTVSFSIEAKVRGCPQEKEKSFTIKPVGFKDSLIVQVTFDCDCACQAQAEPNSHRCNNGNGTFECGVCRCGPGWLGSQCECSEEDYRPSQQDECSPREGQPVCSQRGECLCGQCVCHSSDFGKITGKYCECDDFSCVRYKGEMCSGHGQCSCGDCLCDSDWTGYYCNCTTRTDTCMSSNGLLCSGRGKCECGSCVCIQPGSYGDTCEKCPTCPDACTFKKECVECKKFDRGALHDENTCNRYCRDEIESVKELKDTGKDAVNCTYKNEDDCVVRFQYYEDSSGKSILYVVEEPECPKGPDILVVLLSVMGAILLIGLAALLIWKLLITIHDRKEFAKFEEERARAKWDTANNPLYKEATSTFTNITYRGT
Integrin alpha-IIb/beta-3, sequence (P08514 32-887 limits assumed): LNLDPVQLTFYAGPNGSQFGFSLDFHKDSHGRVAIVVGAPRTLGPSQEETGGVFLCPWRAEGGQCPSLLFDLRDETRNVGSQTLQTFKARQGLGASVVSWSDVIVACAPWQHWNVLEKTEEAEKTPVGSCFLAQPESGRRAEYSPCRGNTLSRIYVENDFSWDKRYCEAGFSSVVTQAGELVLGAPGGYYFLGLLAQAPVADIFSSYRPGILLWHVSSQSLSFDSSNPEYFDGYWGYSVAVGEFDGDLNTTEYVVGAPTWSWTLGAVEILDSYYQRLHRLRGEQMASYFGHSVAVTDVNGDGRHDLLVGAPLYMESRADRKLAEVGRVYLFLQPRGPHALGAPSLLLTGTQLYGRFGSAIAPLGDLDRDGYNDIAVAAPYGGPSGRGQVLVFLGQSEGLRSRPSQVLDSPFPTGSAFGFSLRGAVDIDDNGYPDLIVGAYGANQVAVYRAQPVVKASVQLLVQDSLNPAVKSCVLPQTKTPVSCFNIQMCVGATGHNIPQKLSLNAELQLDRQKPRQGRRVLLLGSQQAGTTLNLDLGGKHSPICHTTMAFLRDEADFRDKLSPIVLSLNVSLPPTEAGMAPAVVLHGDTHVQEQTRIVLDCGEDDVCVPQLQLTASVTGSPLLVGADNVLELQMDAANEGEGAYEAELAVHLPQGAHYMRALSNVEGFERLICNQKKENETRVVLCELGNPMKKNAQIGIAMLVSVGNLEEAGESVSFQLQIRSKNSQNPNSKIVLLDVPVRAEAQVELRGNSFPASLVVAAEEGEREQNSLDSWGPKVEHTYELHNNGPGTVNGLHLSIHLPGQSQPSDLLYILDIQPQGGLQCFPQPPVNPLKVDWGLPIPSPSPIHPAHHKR
Integrin alpha-IIb/beta-3, sequence (P08514 891-1039 limits assumed): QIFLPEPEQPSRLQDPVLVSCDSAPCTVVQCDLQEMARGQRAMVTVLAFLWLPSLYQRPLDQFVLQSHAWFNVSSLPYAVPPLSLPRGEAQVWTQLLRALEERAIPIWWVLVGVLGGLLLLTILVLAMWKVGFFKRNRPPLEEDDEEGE
Integrin alpha-V/beta-3, sequence (P05106 27-788 limits assumed): as the sequence (P05106 27-788 limits assumed) above
Integrin alpha-V/beta-3, sequence (P06756 31-889 partner limits assumed): as the sequence (P06756 31-889 limits assumed) above
Integrin alpha-V/beta-3, sequence (P06756 891-1048 partner limits assumed): as the sequence (P06756 891-1048 limits assumed) above

At Integrin alpha-4/beta-1, `Cc1ccccc1NC(=O)Nc1ccc(-c2cccn(-c3ccc(CCC(=O)O)cc3)c2=O)cc1` gave a Ki greater than 1000 nM.

For the compound `Cc1ccccc1NC(=O)Nc1ccc(-c2cccn(Cc3ccc(C(=O)O)cc3)c2=O)cc1`, at Integrin alpha-4/beta-1, the affinity, expressed as Ki, was 316 nM. `Cc1ccccc1NC(=O)Nc1ccc(-c2cnn(Cc3ccc(CCC(=O)O)cc3)c2)cc1` gave an inhibitory constant (Ki) on Integrin alpha-4/beta-1 greater than 1000 nM. Take `Cc1ccccc1NC(=O)Nc1ccc(-c2cccn(Cc3ccc(CC(=O)O)cc3)c2=O)cc1`: affinity at Integrin alpha-4/beta-1 was put at a Ki of 251 nM.

As to `Cc1ccccc1NC(=O)Nc1ccc(-c2cccn(Cc3ccccc3CCC(=O)O)c2=O)cc1`, the Ki on Integrin alpha-4/beta-1 was 398 nM. On to `COc1cc(-c2cccn(Cc3ccc(CCC(=O)O)cc3)c2=O)ccc1NC(=O)Nc1ccccc1C`, for which, on Integrin alpha-4/beta-1, the Ki is 0.501 nM. In the case of `COc1cc(CC(=O)Nc2ccc([C@H](C)CC(=O)O)cc2)ccc1NC(=O)Nc1ccccc1C`, the Ki at Integrin alpha-4/beta-1 is 0.794 nM. `Cc1ccccc1NC(=O)Nc1ccc(-c2cccn(Cc3ccc(CCC(=O)O)cc3)c2=O)cc1`: the Ki at Integrin alpha-5/beta-1 is greater than 10 µM; at Integrin alpha-V/beta-3, greater than 10 µM; at Integrin alpha-V/beta-6, greater than 10 µM; on Integrin alpha-4/beta-1, 2 nM; at Integrin alpha-4/beta-7, greater than 10 µM; in test [1], greater than 10 µM.

As to `Cc1ccccc1NC(=O)Nc1ccc(-c2cccn(Cc3cccc(CCC(=O)O)c3)c2=O)cc1`, on Integrin alpha-4/beta-1, the Ki is 3.98 nM.

`Cc1ccccc1NC(=O)Nc1ccc(-c2ccn(Cc3ccc(CCC(=O)O)cc3)n2)cc1` showed a Ki on Integrin alpha-4/beta-1 of 251 nM. As for `Cc1ccccc1NC(=O)Nc1ccc(CC(=O)Nc2ccc([C@H](C)CC(=O)O)cc2)cc1`, the affinity at Integrin alpha-4/beta-1 corresponds to a Ki of 63.1 nM. Same read-out and setting: the value for `Cc1ccccc1NC(=O)Nc1ccc(-c2ncn(Cc3ccc(CCC(=O)O)cc3)n2)cc1` was 501 nM; that for `Cc1ccccc1NC(=O)Nc1ccc(-c2cn(Cc3ccc(CCC(=O)O)cc3)cn2)cc1` was greater than 100000 nM. On Integrin alpha-4/beta-1, `COc1cc(-c2ccn(Cc3ccc(CCC(=O)O)cc3)n2)ccc1NC(=O)Nc1ccccc1C` showed a Ki of 25.1 nM. As to `COc1cc(-c2nnc(Cc3ccc(CCC(=O)O)cc3)o2)ccc1NC(=O)Nc1ccccc1C`, the Ki at Integrin alpha-4/beta-1 was greater than 1000 nM.
